Assay results reported in patent US11678665B2, “Pyrazine-4-carbamate or -urea derivatives as herbicides” (Syngenta Participations AG, priority 2017, dated 2023).

How the values were obtained:
Type in all cases: in vivo
[1] = test system: Triticum aestivium (TRZAW); assay: Pre-emergence herbicidal activity, TRZAW; design: key: 5=total damage to plant; 0=no damage to plant; conditions: 1000 g/ha, sprayed pre-emergence, evaluated after 13 days, damage score 0-5
Protocol: (§1) Seeds of a variety of test species were sown in standard soil in pots: Triticum aestivium (TRZAW), Avena fatua (AVEFA), Alopecurus myosuroides (ALOMY), Echinochloa crus-galli (ECHCG), Lolium perenne (LOLPE), and Setaria faberi (SETFA). After cultivation for one day (pre-emergence) under controlled conditions in a glasshouse (at 24/16° C., day/night; 14 hours light; 65% humidity), the plants were sprayed with an aqueous spray solution derived from the formulation of the technical active ingredient in acetone/water (50:50) solution containing 0.5% Tween 20 (polyoxyethelyene sorbitan monolaurate, CAS RN 9005-64-5). The test plants were then grown in a glasshouse under controlled conditions (at 24/16° C., day/night; 14 hours light; 65% humidity) and watered twice daily. After 13 days, the test was evaluated (5=total damage to plant; 0=no damage to plant).

[2] = test system: Echinochloa crus-galli (ECHCG); assay: Post-emergence herbicidal activity, ECHCG; design: key: 5=total damage to plant; 0=no damage to plant; conditions: 1000 g/ha, sprayed post-emergence (8 days cultivation), evaluated after 13 days, damage score 0-5
Protocol: (§2) Seeds of a variety of test species were sown in standard soil in pots: Triticum aestivium (TRZAW), Avena fatua (AVEFA), Alopecurus myosuroides (ALOMY), Echinochloa crus-galli (ECHCG), Lolium perenne (LOLPE), and Setaria faberi (SETFA). After 8 days cultivation (post-emergence) under controlled conditions in a glasshouse (at 24/16° C., day/night; 14 hours light; 65% humidity), the plants were sprayed with an aqueous spray solution derived from the formulation of the technical active ingredient in acetone/water (50:50) solution containing 0.5% Tween 20 (polyoxyethelyene sorbitan monolaurate, CAS RN 9005-64-5). The test plants were then grown in a glasshouse under controlled conditions (at 24/16° C., day/night; 14 hours light; 65% humidity) and watered twice daily. After 13 days, the test was evaluated (5=total damage to plant; 0=no damage to plant).

[3] = test system: Setaria faberi (SETFA); assay: Pre-emergence herbicidal activity, SETFA; design: key: 5=total damage to plant; 0=no damage to plant; conditions: 1000 g/ha, sprayed pre-emergence, evaluated after 13 days, damage score 0-5
Protocol: as §1

[4] = test system: Setaria faberi (SETFA); assay: Post-emergence herbicidal activity, SETFA; design: key: 5=total damage to plant; 0=no damage to plant; conditions: 1000 g/ha, sprayed post-emergence (8 days cultivation), evaluated after 13 days, damage score 0-5
Protocol: as §2

[5] = test system: Echinochloa crus-galli (ECHCG); assay: Pre-emergence herbicidal activity, ECHCG; conditions: 1000 g/ha, sprayed pre-emergence, evaluated after 13 days, damage score 0-5
Protocol: as §1

[6] = test system: Lolium perenne (LOLPE); assay: Post-emergence herbicidal activity, LOLPE; design: key: 5=total damage to plant; 0=no damage to plant; conditions: 1000 g/ha, sprayed post-emergence (8 days cultivation), evaluated after 13 days, damage score 0-5
Protocol: as §2

[7] = test system: Triticum aestivium (TRZAW); assay: Post-emergence herbicidal activity, TRZAW; design: key: 5=total damage to plant; 0=no damage to plant; conditions: 1000 g/ha, sprayed post-emergence (8 days cultivation), evaluated after 13 days, damage score 0-5
Protocol: as §2

[8] = test system: Alopecurus myosuroides (ALOMY); assay: Pre-emergence herbicidal activity, ALOMY; design: key: 5=total damage to plant; 0=no damage to plant; conditions: 1000 g/ha, sprayed pre-emergence, evaluated after 13 days, damage score 0-5
Protocol: as §1

[9] = test system: Avena fatua (AVEFA); assay: Post-emergence herbicidal activity, AVEFA; conditions: 1000 g/ha, sprayed post-emergence (8 days cultivation), evaluated after 13 days, damage score 0-5
Protocol: as §2

[10] = test system: Lolium perenne (LOLPE); assay: Pre-emergence herbicidal activity, LOLPE; design: key: 5=total damage to plant; 0=no damage to plant; conditions: 1000 g/ha, sprayed pre-emergence, evaluated after 13 days, damage score 0-5
Protocol: as §1

[11] = test system: Alopecurus myosuroides (ALOMY); assay: Post-emergence herbicidal activity, ALOMY; design: key: 5=total damage to plant; 0=no damage to plant; conditions: 1000 g/ha, sprayed post-emergence (8 days cultivation), evaluated after 13 days, damage score 0-5
Protocol: as §2

[12] = test system: Avena fatua (AVEFA); assay: Pre-emergence herbicidal activity, AVEFA; design: key: 5=total damage to plant; 0=no damage to plant; conditions: 1000 g/ha, sprayed pre-emergence, evaluated after 13 days, damage score 0-5
Protocol: as §1

Structure (SMILES)	Control of weed species after pre-emergence application: TRAZW [1]	Control of weed species after post-emergence application: ECHCG [2]	Control of weed species after pre-emergence application: SETFA [3]	Control of weed species after post-emergence application: SETFA [4]	Control of weed species after pre-emergence application: ECHCG [5]	Control of weed species after post-emergence application: LOLPE [6]	Control of weed species after post-emergence application: TRAZW [7]	Control of weed species after pre-emergence application: ALOMY [8]	Control of weed species after post-emergence application: AVEFA [9]	Control of weed species after pre-emergence application: LOLPE [10]	Control of weed species after post-emergence application: ALOMY [11]	Control of weed species after pre-emergence application: AVEFA [12]
COCCC(=O)N(C(=O)CCOC)c1ncc(-c2cncc(F)c2)nc1C(F)(F)F [Compound I11]	1	5	4	5	3	1	1	0	4	0	0	0
CC(=O)N(C)c1ncc(-c2cncc(F)c2)nc1C [Compound I6]	0	4	5	5	3	2	1	0	3	0	1	1
CC(=O)N(C(C)=O)c1ncc(-c2cncc(F)c2)nc1C [Compound I5, 2-(diacetylamino)-3-methyl-5-(5-fluoropyrid-3-yl)pyrazine]	0	2	3	–	2	1	1	0	1	1	0	0
CC(=O)Nc1ncc(-c2cncc(F)c2)nc1C(F)(F)F [Compound I3, 2-(acetylamino)-3-trifluoromethyl-5-(5-fluoropyrid-3-yl)pyrazine]	0	3	4	4	3	1	1	0	3	0	1	1
CCC(=O)Nc1ncc(-c2cncc(F)c2)nc1C [Compound I2]	0	4	3	4	2	0	0	0	1	0	0	0
CCC(=O)N(C(=O)CC)c1ncc(-c2cncnc2)nc1C(F)(F)F [Compound I12]	0	3	3	4	2	1	1	0	2	0	1	1
COCCC(=O)Nc1ncc(-c2cncc(F)c2)nc1C [Compound I10]	0	3	2	2	2	0	0	0	1	0	0	0
CC(=O)Nc1ncc(-c2cncc(F)c2)nc1C [Compound I9]	0	2	4	3	1	0	0	0	2	0	0	0
CCC(=O)N(C(=O)CC)c1ncc(-c2cncc(F)c2)nc1C(F)(F)F [Compound I1]	0	4	3	4	2	1	0	0	2	1	0	1
CC(=O)N(C(C)=O)c1ncc(-c2cncnc2)nc1C(F)(F)F [Compound I8]	0	4	4	5	2	1	1	0	2	1	1	0
CC(=O)N(C(C)=O)c1ncc(-c2cncc(F)c2)nc1C(F)(F)F [Compound I4, 2-(diacetylamino)-3-trifluoromethyl-5-(5-fluoropyrid-3-yl)pyrazine]	3	3	4	4	3	1	0	0	2	0	0	1
